Reference: PubChem BioAssay (NCI)
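In this assay, cells in 96-well plates receive the compound at five concentrations for 48 hours. Endpoints are linearly interpolated between the surrounding concentrations. The concentration for full growth arrest is given as TGI.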

Assays:
Assay in all cases: NCI tumour cell line growth inhibition, 48 h
[1] = test system: RPMI-8226 leukemia
[2] = test system: OVCAR-5 ovarian
[3] = test system: LOX IMVI melanoma
[4] = test system: UACC-62 melanoma
[5] = test system: T-47D breast
[6] = test system: SNB-19 CNS
[7] = test system: COLO 205 colon
[8] = test system: HCT-15 colon
[9] = test system: HT29 colon
[10] = test system: NCI/ADR-RES ovarian
[11] = test system: PC-3 prostate
[12] = test system: OVCAR-3 ovarian
[13] = test system: SF-539 CNS
[14] = test system: DU-145 prostate
[15] = test system: MOLT-4 leukemia
[16] = test system: BT-549 breast
[17] = test system: KM20L2 colon
[18] = test system: P388 leukemia
[19] = test system: DLD-1 colon
[20] = test system: DMS 273 small cell lung

Structure (SMILES)	TGI [1] [µM]	TGI [2] [µM]	TGI [3] [µM]	TGI [4] [µM]	TGI [5] [µM]	TGI [6] [µM]	TGI [7] [µM]	TGI [8] [µM]	TGI [9] [µM]	TGI [10] [µM]	TGI [11] [µM]	TGI [12] [µM]	TGI [13] [µM]	TGI [14] [µM]	TGI [15] [µM]	TGI [16] [µM]	TGI [17] [µM]	TGI [18] [µM]	TGI [19] [µM]	TGI [20] [µM]
CCOC(=O)c1csc(NC(=O)CCN2CCCC2)n1	> 100	> 100	> 100	> 100	> 100	> 100	> 100	> 100	> 100	> 100	> 100	> 100	> 100	> 100	> 100	–	–	–	–	–
O=C(C(=C(I)I)c1ccccc1)c1ccccc1	45.5	> 100	–	53.4	–	> 100	> 100	> 100	> 100	> 100	> 100	42.3	52.6	–	58.1	> 100	–	–	–	–
COc1ccc(C2c3cc4c(cc3OC(Nc3ccccc3)C2C)OCO4)cc1 (stereo not given)	> 100	> 100	> 100	> 100	> 100	> 100	> 100	> 100	> 100	–	> 100	> 100	> 100	> 100	> 100	> 100	–	–	–	–
CCCn1cc2c3c(cccc31)C1C=C(C)CN(C)C1C2 (stereo not given)	25.1	57	39.8	55.7	–	62.1	33.3	49	42.7	58.8	–	52.6	59.5	–	40.2	–	38.8	28.5	54.3	47.3
COc1cc(N=Nc2ccc(OC)c(S(=O)(=O)O)c2)c(C)cc1N=Nc1ccc(/C=C/c2ccc(N=[N+]([O-])c3ccc(/C=C/c4ccc(N=Nc5cc(C)c(N=Nc6ccc(OC)c(S(=O)(=O)O)c6)cc5OC)cc4S(=O)(=O)O)c(S(=O)(=O)O)c3)cc2S(=O)(=O)O)c(S(=O)(=O)O)c1	> 100	> 100	> 100	> 100	–	> 100	> 100	> 100	> 100	> 100	–	> 100	> 100	–	> 100	–	> 100	> 100	> 100	> 100
